From patent publication US11008549B2, “In vitro model for a tumor microenvironment” (HemoShear, LLC, priority 2013, dated 2021)
Like-named read-outs stand apart in the source and are kept apart here.

Legend:
primary rat hepatocytes [1] = assay: Gluconeogenesis assay (AMPLEX RED glucose in supernatant); type: cell-based; details: 4 hours; for Effect (% Change) on glucose levels: insulin 2 nM or glucagon 100 nM; for decreased glucose levels by: insulin 2 nM
cytochrome p450 1A/1B = assay: Cytochrome p450 1A/1B activity (P450-GLO) in rat hepatocytes after inducer; type: in vitro ADME; details: controlled hemodynamics, 3-MC 0.1 μM, 48 hours, day 7
Description: (§1) Cytochrome Activity Assays: Hepatocytes were cultured in the cone-and-plate devices under static or controlled hemodynamic conditions for five days, and then treated with 0.1% dimethyl sulfoxide (DMSO) or known inducers of cytocrhome enzymesβ-methylcholanthrene and dexamethasone) for 48 hours. Porous membrane segments roughly 2 cm^2 in area were excised and transferred to standard 24-well plates alongside corresponding static cultures. The cells were incubated with 500 μl of hepatocyte media containing substrates from commercially available P450-GLO kits (kits for luminescent cytochrome p450 assays) at the manufacturer-recommended concentrations. After 4 hours, the media was transferred to 96-well plates and assayed for luminescent metabolites to reflect cytochrome p450 activity as per the manufacturer protocol.
(§2) To validate that the increase in metabolic genes and proteins translated to changes in metabolic activity, primary rat hepatocytes were cultured as described earlier in the cone-and-plate devices under controlled hemodynamics (0.6 dynes/cm^2) and in static collagen gel cultures. […]

[2] = steady state plasma Cmax at therapeutic doses in mice, read-out: Mouse Cmax, cited from earlier work
A549 tumor cells = assay: Growth of A549 tumor cells in tri-cultures under tumor capillary hemodynamics (PICOGREEN cell number); type: cell-based; details: drug at human Cmax, day seven, tri-culture without exogenous ECM, hemodynamic flow and transport, vs vehicle
Description: The vehicle control or drug was added to the inflow media for the endothelial cell layer and perfused into the upper volume. Tri-cultures were maintained in the presence of absence of drugs for up to seven days under hemodynamic flow and transport. Cell number was determined at day seven using the QUANT-IT PICOGREEN dsDNA Assay Kit according to the manufacturer's instructions (Life Technologies, Grand Island, N.Y.).

[3] = cited from earlier work; for Cmax: steady state plasma Cmax, patients, established therapeutic dosing; for in vivo Cmax level achieved in humans: human
A549 cells = details: static 2D cultures, cited from earlier work
[4] = system: primary human hepatocytes; details: 72 h
Description: MTT Assay: To assess toxicity responses of human hepatocytes, the cells were plated and cultured in the cone-and-plate devices under hemodynamic conditions using the operating conditions described above or were cultured under static conditions (controls) for 7 days before being exposed to either 0.1% DMSO or known toxic drug chlorpromazine (0.1 μM, 1 μM and 10 μM) for 72 hours. Hepatocytes were then incubated with medium containing lmg/ml of MTT reagent (thiazolyl blue tetrazolium bromide) for 1 hour, following which the cells were lysed in DMSO to release the formazan blue dye formed. The solution was transferred to a 96 well plate and the absorbance was read at 595 nm.

[5] = system: primary human hepatocytes; details: 72 h, 1 μM
Description: RT-PCR: Changes in metabolic, toxic, and insulin/glucose/lipid pathway genes were assessed by extracting RNA from hepatocytes from devices run under healthy and steatotic conditions at the end of the culture period (7 or 14 days) and performing RT-PCR on this RNA. The […] were removed from the devices and washed with PBS prior to scraping the cells off the porous membrane. Total RNA was isolated using a […] RNA Mini Kit (a kit for purification of total RNA from cells) and reverse transcribed to cDNA using the ISCRIPT cDNA Synthesis Kit (a cDNA synthesis kit). Primers were designed for the metabolic genes CYP1A1, CYP1A2, CYP3A2, MDR, and GST as well as the insulin/glucose/lipid pathway genes GPAT, ACC1, IRS-2, PPAR-γ, SREBP, ChREBP, LXR, SCD1, CPT1. Primer sequences are shown below in Table 3:
RNA expression was analyzed by real-time RT-PCR using IQ SYBR Green Supermix (a PCR reagent mixture for RT-PCR) and a CFX96 Real-Time System with C1000 Thermal Cycler (an RT-PCR detection system and thermal cycler). RNA data were normalized to endogenous expression of β2-microglobulin and reported as a relative quantity compared to healthy cultures.
Human genes assessed for metabolism and toxicity experiments included CYP1A1. CYP2A6, CYP2B6, CYP2C9, CYP2D6, CYP3A4, CYP3A5, GSTA1, UGT1A1, GSR, SORD, TXNRD1, and APEX1.
Cryopreserved primary human hepatocytes thawed and plated as described above were cultured in the cone-and-plate devices under controlled hemodynamics or were cultured under static conditions (controls) for 7 days before being exposed to different concentrations of chlorpromazine (0.1 μM, 1 μM, and 10 μM) or vehicle control for 72 hours. Live-dead staining was performed on the hepatocytes with ethidium-calcein stain. Hepatocytes were also incubated with MTT reagent for 1 hour to assess viability. RNA was extracted from additional segments and RT-PCR was performed to assess selected toxicity and metabolic genes.

primary rat hepatocytes [6] = details: 4 h, 1 μM
Description: The hepatocytes were then washed with PBS and incubated with serum free hepatocyte medium with or without known toxic drug chlorpromazine (CPZ) at two different concentrations (1 μM and 10 μM) for 4 hours. Supernatants from the cells were collected and microRNA extraction was performed using the [sequence] serum/plasma kit (a kit for extracting microRNA, Qiagen). The cDNA was prepared by using the [sequence] RT kit (a kit for preparing cDNA, Qiagen) and samples quantified using the [sequence] SYBR GREEN PCR kit (a kit for quantifying cDNA, Qiagen), following the manufacturer's instructions.
Primary rat hepatocytes isolated and plated as described above were cultured in the cone-and-plate devices under controlled hemodynamic conditions or were cultured under static conditions (controls) for 7 days. The hepatocytes were washed with PBS and immediately incubated with either vehicle (distilled water) or chlorpromazine (1 μM) for 4 hours.

rat hepatocytes [7] = assay: In vitro fatty liver model, total triglycerides; type: cell-based; details: 1.5 μM, high insulin/glucose fatty liver media, controlled hemodynamics, day 7
Description: After 1 hour, the [sequence] were inverted and placed into cell culture dishes, and media was added (9 ml in the lower volume and 6 ml in the upper volume). After 24 hours (i.e., on day 2 of the experiments), the media was changed to maintenance media (the healthy or fatty liver media described above) and the Petri dishes were placed in the cone-and-plate hemodynamic flow device, and controlled hemodynamics were applied to the surface of the porous membrane of the [sequence] in the upper volume. […] The cells were cultured under controlled hemodynamics until day 7, when hepatocytes were examined using the assays described below.
At the end of the treatment period, cells were collected from the porous membranes by scraping with a rubber policeman and PBS, after which they were centrifuged (2,000×g for 10 minutes at 4° C.). The cell pellets were resuspended in 100 μl of cold diluted Standard Diluent from the triglyceride assay kit and sonicated 20 times at one second bursts. The cell suspension was then centrifuged at 10,000×g for 10 minutes at 4° C. The supernatant was removed and used for the assay as per the manufacturer's protocol and normalized to protein content from the same samples. […]

rat hepatocytes [8] = assay: In vitro fatty liver model, metabolic gene expression (RT-PCR); type: cell-based; details: 1.5 μM, high insulin/glucose fatty liver media, controlled hemodynamics, day 7
Description: (§3) RT-PCR: Changes in metabolic, toxic, and insulin/glucose/lipid pathway genes were assessed by extracting RNA from hepatocytes from devices run under healthy and steatotic conditions at the end of the culture period (7 or 14 days) and performing RT-PCR on this RNA. The [sequence] were removed from the devices and washed with PBS prior to scraping the cells off the porous membrane. Total RNA was isolated using a [sequence] RNA Mini Kit (a kit for purification of total RNA from cells) and reverse transcribed to cDNA using the ISCRIPT cDNA Synthesis Kit (a cDNA synthesis kit). Primers were designed for the metabolic genes CYP1A1, CYP1A2, CYP3A2, MDR, and GST as well as the insulin/glucose/lipid pathway genes GPAT, ACC1, IRS-2, PPAR-γ, SREBP, ChREBP, LXR, SCD1, CPT1.
After 1 hour, the [sequence] were inverted and placed into cell culture dishes, and media was added (9 ml in the lower volume and 6 ml in the upper volume). After 24 hours (i.e., on day 2 of the experiments), the media was changed to maintenance media (the healthy or fatty liver media described above) and the Petri dishes were placed in the cone-and-plate hemodynamic flow device, and controlled hemodynamics were applied to the surface of the porous membrane of the [sequence] in the upper volume. […]

primary rat hepatocytes [9] = assay: Gene expression of oxidative stress-related genes, MRP3 and MRP4 in rat hepatocytes; type: cell-based; details: controlled hemodynamic conditions, in vivo/clinical plasma Cmax concentrations
Description: as §3

primary rat hepatocytes [10] = assay: CDFDA/CDF bile canalicular imaging (cholestatic changes); type: cell-based; details: controlled hemodynamic conditions, 48 hours
Description: For imaging of the biliary activity at canalicular junctions, sections of the porous membrane of the TRANSWELL were washed with PBS and incubated with media containing 10 μM carboxy-2,7-dichlorofluorescein diacetate (CDFDA) for 10 minutes. Samples were then washed with PBS and placed on glass slide for confocal imaging.
The hepatocytes were washed with PBS and immediately incubated with the substrate 10 uM carboxy-2,7-dichlorofluorescein diacetate (CDFDA). The cells were imaged by confocal microscopy during a 20-min exposure to the nonfluorescent substrate CDFDA to allow for the hydrolysis of the substrate to the highly fluorescent Mrp-2 substrate carboxy-2,7-dichlorofluorescein (CDF) and its active secretion into the bile canalicular structures.

primary rat hepatocytes [11] = assay: Toxicity of inducer concentration to rat hepatocytes under controlled flow; type: cell-based; details: 50 μM, concentration recommended for inducing static cultures
Description: As a result the concentration of the dexamethasone was decreased to 1 μg/ml in order to get an inductive response, a level that correlates well with plasma concentrations seen in vivo in rats.

cytochrome p450 3A = assay: Cytochrome p450 3A activity (P450-GLO) in rat hepatocytes after inducer; type: in vitro ADME; details: controlled hemodynamics, dexamethasone 02.5 μM, 48 hours, day 7
Description: as §1, §2

[12] = No substrate, controlled hemodynamics
[13] = substrate Glycerol 2 mM, controlled hemodynamics
[14] = substrate Lactate/Pyruvate (20 mM/2 mM), controlled hemodynamics

Question: With `OCC(O)CO` [Glycerol, glycerol] as the compound, how does the “glucose produced by the hepatocytes increased in the presence of the substrate” value (primary rat hepatocytes [1]; glycerol 2 mM, controlled hemodynamics) read?
Answer: 67%

Question: For insulin, which “Effect (% Change) on glucose levels” value (primary rat hepatocytes [1]; [12]) is on record?
Answer: −27%

Question: And the “decreased glucose levels by” value (primary rat hepatocytes [1]; absence of a substrate)?
Answer: 27%

Question: And the “Effect (% Change) on glucose levels” value (primary rat hepatocytes [1]; [13])?
Answer: −38%

Question: And the “Effect (% Change) on glucose levels” value (primary rat hepatocytes [1]; [14])?
Answer: −25%

Question: What about the “decreased glucose levels by” value (primary rat hepatocytes [1]; substrate glycerol) of the same compound?
Answer: 38%

Question: What about the “decreased glucose levels by” value (primary rat hepatocytes [1]; substrates lactate and pyruvate) of the same compound?
Answer: 25%

Question: With glucagon as the compound, how does the “Effect (% Change) on glucose levels” value (primary rat hepatocytes [1]; [12]) read?
Answer: +51%

Question: What about the “increased glucose levels by” value (primary rat hepatocytes [1]; absence of a substrate, glucagon 100 nM) of the same compound?
Answer: 51%

Question: What about the “Effect (% Change) on glucose levels” value (primary rat hepatocytes [1]; [13]) of the same compound?
Answer: +15%

Question: What about the “Effect (% Change) on glucose levels” value (primary rat hepatocytes [1]; [14]) of the same compound?
Answer: +80%

Question: And the “increased glucose levels by further” value (primary rat hepatocytes [1]; substrate glycerol, glucagon 100 nM)?
Answer: 15%

Question: And the “increased glucose produced by” value (primary rat hepatocytes [1]; substrates lactate and pyruvate, glucagon 100 nM)?
Answer: 80%

Question: With `Cc1ccc2cc3c(ccc4ccccc43)c3c2c1CC3` [3-MC, 3-Methyl Cholanthrene] as the compound, how does the “1A/1B response (cytochrome p450 activity normalized to ATP)” value (cytochrome p450 1A/1B) read?
Answer: 133.06

Question: Which Cmax [2] does the source give for `NC1(c2ccc(-c3nc4ccn5c(=O)[nH]nc5c4cc3-c3ccccc3)cc2)CCC1` [MK2206] here?
Answer: 0.54 µM

Question: What about the “inhibited A549 growth” value (A549 tumor cells) of the same compound?
Answer: 44%

Question: And the Cmax [3]?
Answer: 0.16 µM

Question: And the IC50 (A549 cells)?
Answer: 3 µM

Question: What does the source list for `N.N.[Cl][Pt][Cl]` [Cisplatin, cisplatin]?
Answer: Cmax ([2]; listed as cisplatin): > 10 µM; Cmax [2]: > 10 µM; inhibited A549 growth (A549 tumor cells): 48%; Cmax [3]: 3 µM; IC50 (A549 cells; listed as cisplatin): > 6 µM; IC50 (A549 cells): > 6 µM

Question: Which results are given for `CN(C)CCCN1c2ccccc2Sc2ccc(Cl)cc21` [chlorpromazine]?
Answer: toxicity ([4]; 1 μM): 30.3%; toxicity ([4]; 10 μM): 46.4%; upregulation of APEX nuclease (multifunctional DNA repair enzyme) [5]: 2.8 fold; upregulation of glutathione reductase (GSR) [5]: 8.3 fold; upregulation of sorbitol dehydrogenase (SORD) [5]: 6.9 fold; upregulation of thioredoxin reductase 1 (TXNRD1) [5]: 5.5 fold; miRNA 122 levels in the supernatants compared to vehicle controls (primary rat hepatocytes [6]): did not cause any change in miRNA 122 levels; miRNA 122 released into supernatant, over vehicle controls (primary rat hepatocytes [6]): 6 fold

Question: Which “in vivo Cmax level achieved in humans” value [3] does the source give for `C#Cc1cccc(Nc2ncnc3cc(OCCOC)c(OCCOC)cc23)c1` [erlotinib] here?
Answer: 1 µg/mL

Question: What does the source list for `CCc1ccc(CCOc2ccc(CC3SC(=O)NC3=O)cc2)nc1` (centres unmarked) [pioglitazone]?
Answer: total triglyceride content of hepatocytes (rat hepatocytes [7]): reduced total triglyceride content; expression of metabolic genes such as Cyp3A2 (rat hepatocytes [8]): restored the expression of metabolic genes

Question: For `Cc1c(C)c2c(c(C)c1O)CCC(C)(COc1ccc(CC3SC(=O)NC3=O)cc1)O2` (centres unmarked) [troglitazone], which “gene expression associated with toxic response” value (primary rat hepatocytes [9]) is on record?
Answer: upregulation of oxidative stress-related genes and compensatory upregulation of MRP3 and MRP4 genes

Question: And the “changes in bile canalicular pattern” value (primary rat hepatocytes [10]; 4 uM)?
Answer: changes in the canalicular pattern with visibly dilated canalicular structures

Question: What about the “changes in bile canalicular pattern” value (primary rat hepatocytes [10]; 40 uM) of the same compound?
Answer: much more prominent and extensive

Question: With `Cn1cnc2c(F)c(Nc3ccc(Br)cc3Cl)c(C(=O)NOCCO)cc21` [AZD6244/Selumetinib, Selumetinib] as the compound, how does the “inhibited A549 growth” value (A549 tumor cells) read?
Answer: 78%

Question: And the Cmax [3]?
Answer: 1.4 µM

Question: And the IC50 (A549 cells)?
Answer: 5 µM

Question: Which “in vivo Cmax level achieved in humans” value [3] does the source give for `N.N.O=C([O-])C1(C(=O)[O-])CCC1.[Pt+2]` [carboplatin] here?
Answer: 37 µg/mL

Question: For `C[C@@H]1C[C@H]2[C@@H]3CCC4=CC(=O)C=C[C@]4(C)[C@@]3(F)[C@@H](O)C[C@]2(C)[C@@]1(O)C(=O)CO` [Dexamethasone, dexamethasone], which “toxicity in the controlled flow system” value (primary rat hepatocytes [11]) is on record?
Answer: toxic

Question: And the “3A response (cytochrome p450 activity normalized to ATP)” value (cytochrome p450 3A)?
Answer: 57.53
